How the values were obtained:
[1] = 25° C./75% relative humidity
CGRP [2] = details: clinical trials, Olesen et al. 2004; cited from earlier work
CGRP [3] = details: control group, Petersen et al. 2005; cited from earlier work

Row | Molecule | Water content [1] [%] | efficacy in treating acute attacks of migraine (CGRP [2]) | prevention of headache induced by CGRP infusion (CGRP [3])
1 | O=C(N[C@@H]1CC[C@@H](c2cccc(F)c2F)CN(CC(F)(F)F)C1=O)N1CCC(n2c(=O)[nH]c3ncccc32)CC1 [spray-dried amorphous form] | 18 | – | –
2 | BIBN4096BS | – | effective in treating acute attacks of migraine | able to prevent headache induced by CGRP infusion
